# Assays:
# [1] = target: T1, BluB(Bm) (Priestia megaterium, UniProt D5DCL0); assay: HPLC of DMB formed; type: biochemical; details: O2 required; […] Tris-HCl pH […] NaCl, […] DTT; room temperature; FMN reduced in situ by NADH
# T1 construct: native N-terminus MNSFTN by printed primer
# T1 sequence (D5DCL0 1-217): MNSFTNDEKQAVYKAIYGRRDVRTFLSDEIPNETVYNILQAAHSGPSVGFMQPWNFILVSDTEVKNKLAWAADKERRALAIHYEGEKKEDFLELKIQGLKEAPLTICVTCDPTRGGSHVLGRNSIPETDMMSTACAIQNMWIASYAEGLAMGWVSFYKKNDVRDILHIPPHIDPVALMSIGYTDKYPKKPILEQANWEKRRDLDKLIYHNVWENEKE
# [2] = target: T2, BluB(Rc) (Rhodobacter capsulatus, UniProt D5AV14); assay: HPLC of DMB formed; stopped-flow detection of 4a-peroxyflavin at […] nm; type: biochemical; details: O2 required; 20 mM Tris-HCl pH 8.0, 100 mM NaCl; FMN reduced by NADH (HPLC) or dithionite (stopped-flow)
# T2 construct: N-terminal His6 tag with thrombin site (pET14b), expressed in E. coli BL21star(DE3)pLysS, 25 kDa on SDS-PAGE; native N-terminus MNFEQT by printed primer
# T2 sequence (D5AV14 whole entry): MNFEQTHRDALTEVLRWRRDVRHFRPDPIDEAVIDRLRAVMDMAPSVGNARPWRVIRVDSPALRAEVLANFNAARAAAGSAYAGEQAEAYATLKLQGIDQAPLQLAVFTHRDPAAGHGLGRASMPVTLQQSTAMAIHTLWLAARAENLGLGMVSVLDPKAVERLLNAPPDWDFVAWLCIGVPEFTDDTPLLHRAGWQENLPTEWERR
# [3] = target: T3, CbiY(Bm) (Priestia megaterium, UniProt D5DG39); assay: UV-visible spectrum of purified holoprotein; heat release, HPLC and mass spectrometry; type: binding; details: non-covalently bound, co-purified
# T3 construct: native N-terminus MTIISQLK by primer
# T3 sequence (D5DG39 1-189): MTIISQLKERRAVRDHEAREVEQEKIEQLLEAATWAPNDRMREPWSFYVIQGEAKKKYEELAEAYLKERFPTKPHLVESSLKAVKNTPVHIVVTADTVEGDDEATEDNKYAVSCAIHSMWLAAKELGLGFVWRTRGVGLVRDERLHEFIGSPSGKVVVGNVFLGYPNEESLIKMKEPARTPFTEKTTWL
SMILES,HPLC of DMB formed [1],HPLC of DMB formed; stopped-flow detection of 4a-peroxyflavin at 380 nm [2],"UV-visible spectrum of purified holoprotein; heat release, HPLC and mass spectro [3]"
Cc1cc2c(cc1C)N(C[C@H](O)[C@H](O)[C@H](O)COP(=O)(O)O)c1[nH]c(=O)[nH]c(=O)c1N2 [FMNH2],DMB formation was observed in reaction mixtures containing either BluB(Rc) or BluB(Bm),"In the case of the BluB(Rc) enzyme, rapid formation of a peroxyflavin intermediate",–
Cc1cc2nc3c(=O)[nH]c(=O)nc-3n(C[C@H](O)[C@H](O)[C@H](O)COP(=O)(O)O)c2cc1C [FMN],–,–,The flavin cofactor could be removed from the holoenzyme by denaturing the protein
